# Reference: ChEMBL document CHEMBL1201862, “PubChem BioAssay data set” (2004)
# Activity calls are given as the source filed them.
# How the values were obtained:
# [1] = biological target: FAD-linked sulfhydryl oxidase ALR (Homo sapiens, UniProt P55789); experiment: ALR-catalysed DTT oxidation blockers – biochemical, H2O2 detection, luminescence, cherry-pick, dose response (AID 493248)
# [2] = viability of PTEN-deleted HCT116 cells – cell-based, HCT116 PTEN knockout, dose response (AID 1047); assay type: functional;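 further: HCT116 colon tumor cells with PTEN knocked out; cells exposed to compound for 60 hours before readout; potency for loss of cell viability measured by luminescence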
# [3] = viability of HCT116 lacking mutant beta-catenin – cell-based, human colon tumor, dose response (AID 1045); assay type: functional;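 further: HCT116 colon tumor cells with beta catenin knocked out; cells exposed to compound for 60 hours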
# [4] = Luminescence Cell-Based Dose Retest to Confirm Inhibitors of Cancer Stem Cells. [Related pubchem assays (depositor defined):AID2717, AID2721]; assay type: functional; details: Homo sapiens
# [5] = microbe, parasite or virus in culture; assay type: functional; details: Mycobacterium tuberculosis
# Caspase-6 = biological target: T1, Caspase-6 (Homo sapiens, UniProt P55212); experiment: inhibition of CASP6 peptide cleavage – biochemical, VEID-R110 fluorescence, cherry-pick, dose response (AID 720632)
# T1 sequence (P55212 whole entry): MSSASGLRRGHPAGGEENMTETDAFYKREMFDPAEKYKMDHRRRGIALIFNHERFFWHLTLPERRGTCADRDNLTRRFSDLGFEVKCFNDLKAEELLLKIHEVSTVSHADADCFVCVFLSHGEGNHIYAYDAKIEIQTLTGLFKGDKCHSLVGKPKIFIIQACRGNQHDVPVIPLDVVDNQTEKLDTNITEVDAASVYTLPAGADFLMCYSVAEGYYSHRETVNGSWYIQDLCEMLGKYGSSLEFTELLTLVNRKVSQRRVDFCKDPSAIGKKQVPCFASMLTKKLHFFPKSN
# Leucine aminopeptidase = biological target: T2, Leucine aminopeptidase (Plasmodium falciparum 3D7, UniProt Q8IL11); experiment: P. falciparum M17LAP inhibitors, primary screen, biochemical, fluorogenic H-Leu-NHMec substrate, 1536-well (AID 1619); assay type: functional
# T2 sequence (Q8IL11 whole entry): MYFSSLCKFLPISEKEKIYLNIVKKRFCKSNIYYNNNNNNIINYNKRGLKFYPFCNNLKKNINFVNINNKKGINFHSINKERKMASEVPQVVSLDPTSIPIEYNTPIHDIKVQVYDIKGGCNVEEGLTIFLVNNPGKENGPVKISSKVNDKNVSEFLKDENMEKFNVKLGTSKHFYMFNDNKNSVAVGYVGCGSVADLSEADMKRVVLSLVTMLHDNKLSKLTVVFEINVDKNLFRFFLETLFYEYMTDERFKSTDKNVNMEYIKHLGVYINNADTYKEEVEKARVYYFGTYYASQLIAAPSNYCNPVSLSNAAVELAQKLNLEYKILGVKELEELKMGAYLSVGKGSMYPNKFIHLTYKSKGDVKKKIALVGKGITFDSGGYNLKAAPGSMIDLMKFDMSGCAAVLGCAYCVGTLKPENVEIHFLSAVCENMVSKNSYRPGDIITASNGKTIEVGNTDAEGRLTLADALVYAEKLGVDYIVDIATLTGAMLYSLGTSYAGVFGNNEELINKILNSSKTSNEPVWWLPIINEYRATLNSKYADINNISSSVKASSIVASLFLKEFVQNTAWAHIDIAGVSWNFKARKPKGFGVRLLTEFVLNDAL
# [6] = biological target: T3, Calpain-2 catalytic subunit (Sus scrofa, UniProt P43367); experiment: m-calpain protease blockers, concentration series – biochemical, fluorogenic peptide substrate, dose response (AID 1420); assay type: functional
# T3 sequence (P43367 whole entry): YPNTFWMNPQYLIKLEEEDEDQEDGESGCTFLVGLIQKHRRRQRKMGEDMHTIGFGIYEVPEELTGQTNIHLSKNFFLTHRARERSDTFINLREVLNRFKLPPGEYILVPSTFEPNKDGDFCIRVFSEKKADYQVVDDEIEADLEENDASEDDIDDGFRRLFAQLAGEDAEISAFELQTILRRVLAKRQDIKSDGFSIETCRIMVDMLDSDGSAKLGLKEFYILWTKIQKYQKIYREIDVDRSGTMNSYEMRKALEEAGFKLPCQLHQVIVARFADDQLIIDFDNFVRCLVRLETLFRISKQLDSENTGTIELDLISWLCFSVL
# [7] = biological target: T4, Polyadenylate-binding protein 1 (Homo sapiens, UniProt P11940); experiment: MLLE domain peptide-binding blockers, IC50 – biochemical, fluorescence polarization, FITC-PAM2 peptide, dose response (AID 602259); assay type: functional; details: read-out: IC50_Mean
# [8] = biological target: T4, Polyadenylate-binding protein 1; experiment: MLLE binding blockers, Cy5 peptide tracer – biochemical, fluorescence polarization, Cy5-PAM2 peptide, secondary, miRNA deadenylation inhibitor project, dose response (AID 602260); assay type: functional; details: read-out: IC50_Mean
# [9] = biological target: Glucose-6-phosphate 1-dehydrogenase (Homo sapiens, UniProt P11413); experiment: inhibition of Homo sapiens G6PD, dose series – biochemical, fluorescence, selectivity assay for P. falciparum G6PD inhibitor project, dose response (AID 504792); assay type: functional
# INS1 = experiment: INS-1E survival protection against cytokine death – cell-based, luminescence, retest, dose response (AID 449756); assay type: functional; details: Rattus norvegicus;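 further: cell death triggered by IL-1 beta plus TNF-alpha plus IFN-gamma mixture; protective hits raise ATP signal compared with cytokine alone wells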
# [10] = viability of uninfected HEp-2 cells – cell-based, HTS, cytotoxicity control for RSV inhibitor project, dose response (AID 2410); assay type: functional; details: human respiratory syncytial virus
# Streptococcus = experiment: GAS UMAA2166 growth inhibition – luminescence, BacTiterGlo, counter-screen for streptokinase expression inhibitor project, dose response (AID 1915); assay type: functional, organism-based;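 further: potency for reduction of bacterial viability or growth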
# [11] = tested on: Streptococcus sp. 'group A'; experiment: Streptococcus pyogenes SK(-)GAS viability under kanamycin – luminescence, BacTiterGlo, confirmation, counter-screen for streptokinase expression inhibitor project, dose response (AID 1900); assay type: functional, organism-based
# H9c2 = experiment: cells; assay type: functional, cell-based; details: Rattus norvegicus, H9c2, Myocardium;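 further: confirmatory concentration-response retest of ultra-high-throughput screening hits for modulation of myocardial damage; cell death induced by hydrogen peroxide oxidative stress; compound pretreatment for 60 min then peroxide exposure for 2 h; potency is for protecting the cells against peroxide damage rather than for killing them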
# Genome polyprotein = Genome polyprotein (dengue virus type 2, UniProt P29990); experiment: flavivirus cap methylation enzyme inhibition – biochemical, confirmation dose response, primary screen (AID 588689); assay type: functional
# [12] = biological target: T5, Rac GTPase-activating protein 1 (Homo sapiens, UniProt Q9H0H5); experiment: blockers of MgcRacGAP-driven Rac1 GTP hydrolysis – biochemical, ADP Hunter fluorescence, primary and confirmatory, confirmation (AID 624330); assay type: functional
# T5 sequence (Q9H0H5 whole entry): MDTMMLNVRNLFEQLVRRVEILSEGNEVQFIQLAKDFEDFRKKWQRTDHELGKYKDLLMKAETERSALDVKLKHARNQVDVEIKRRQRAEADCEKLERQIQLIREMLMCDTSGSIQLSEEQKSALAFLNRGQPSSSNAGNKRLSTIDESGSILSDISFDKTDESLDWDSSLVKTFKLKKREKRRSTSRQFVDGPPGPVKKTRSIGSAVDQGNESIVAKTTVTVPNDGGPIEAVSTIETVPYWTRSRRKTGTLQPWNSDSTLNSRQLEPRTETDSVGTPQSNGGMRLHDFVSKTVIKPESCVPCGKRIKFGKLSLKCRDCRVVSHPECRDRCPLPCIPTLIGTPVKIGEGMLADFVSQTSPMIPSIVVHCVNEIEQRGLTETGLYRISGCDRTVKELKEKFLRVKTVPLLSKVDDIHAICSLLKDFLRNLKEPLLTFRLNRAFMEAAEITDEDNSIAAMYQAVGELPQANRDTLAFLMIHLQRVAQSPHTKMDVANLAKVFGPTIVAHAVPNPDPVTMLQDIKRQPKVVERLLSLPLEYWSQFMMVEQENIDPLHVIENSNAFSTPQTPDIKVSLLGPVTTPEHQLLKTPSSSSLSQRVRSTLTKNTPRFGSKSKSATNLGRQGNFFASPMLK
# [13] = NIH3T3 cell viability loss – ATP luminescence, mouse fibroblasts, counter-screen, dose response (AID 2010); assay type: functional, cell-based;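 further: cells exposed to compound for about 90 hours before reading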
# [14] = Trypanosoma cruzi growth suppression in host cells – NIH3T3 host cells, beta-gal luminescence, confirmation (AID 2044); assay type: functional, cell-based;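 further: intracellular parasites grown in NIH/3T3 mouse fibroblasts as host cells; luminescent beta-galactosidase reporter signal from transgenic T. cruzi replicating inside host cells; inhibitors lower the luminescence signal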
# cells = assay type: functional
# [15] = reduction of Shn3 3'UTR-driven luciferase in osteoblasts – cell-based, Clone20 osteoblasts, firefly luciferase, cherry-picked, dose response (AID 624132); assay type: functional;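 further: firefly luciferase luminescence from reporter carrying the Shn3 3'UTR in osteoblasts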
# [16] = loss of viability in HepG2 cells – cell-based, CellTiter-Glo, cherry-picked, cytotoxicity control for Shn3 inhibitor project, dose response (AID 624134); assay type: functional
# [17] = non-specific 3'UTR reporter inhibition in Clone20-Shn3RL – cell-based, Renilla luciferase, cherry-picked, counter-screen for Shn3 inhibitor project, dose response (AID 624133); assay type: functional
# Sequence of Glucose-6-phosphate 1-dehydrogenase (P11413 whole entry): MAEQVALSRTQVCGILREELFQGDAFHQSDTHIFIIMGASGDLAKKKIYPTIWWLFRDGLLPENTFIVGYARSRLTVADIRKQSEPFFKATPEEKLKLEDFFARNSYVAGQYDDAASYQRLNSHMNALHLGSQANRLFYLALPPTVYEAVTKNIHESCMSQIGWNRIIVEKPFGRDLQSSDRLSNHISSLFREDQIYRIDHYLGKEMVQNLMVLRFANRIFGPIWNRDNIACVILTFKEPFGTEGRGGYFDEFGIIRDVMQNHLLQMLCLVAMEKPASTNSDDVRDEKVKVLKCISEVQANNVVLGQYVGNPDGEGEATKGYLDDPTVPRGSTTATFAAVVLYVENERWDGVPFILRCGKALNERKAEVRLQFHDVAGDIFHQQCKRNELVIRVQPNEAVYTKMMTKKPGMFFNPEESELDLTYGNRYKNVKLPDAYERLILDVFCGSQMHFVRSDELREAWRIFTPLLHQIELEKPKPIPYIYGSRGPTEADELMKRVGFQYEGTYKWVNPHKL
# T4 sequence (P11940 whole entry, the tested form may be a part): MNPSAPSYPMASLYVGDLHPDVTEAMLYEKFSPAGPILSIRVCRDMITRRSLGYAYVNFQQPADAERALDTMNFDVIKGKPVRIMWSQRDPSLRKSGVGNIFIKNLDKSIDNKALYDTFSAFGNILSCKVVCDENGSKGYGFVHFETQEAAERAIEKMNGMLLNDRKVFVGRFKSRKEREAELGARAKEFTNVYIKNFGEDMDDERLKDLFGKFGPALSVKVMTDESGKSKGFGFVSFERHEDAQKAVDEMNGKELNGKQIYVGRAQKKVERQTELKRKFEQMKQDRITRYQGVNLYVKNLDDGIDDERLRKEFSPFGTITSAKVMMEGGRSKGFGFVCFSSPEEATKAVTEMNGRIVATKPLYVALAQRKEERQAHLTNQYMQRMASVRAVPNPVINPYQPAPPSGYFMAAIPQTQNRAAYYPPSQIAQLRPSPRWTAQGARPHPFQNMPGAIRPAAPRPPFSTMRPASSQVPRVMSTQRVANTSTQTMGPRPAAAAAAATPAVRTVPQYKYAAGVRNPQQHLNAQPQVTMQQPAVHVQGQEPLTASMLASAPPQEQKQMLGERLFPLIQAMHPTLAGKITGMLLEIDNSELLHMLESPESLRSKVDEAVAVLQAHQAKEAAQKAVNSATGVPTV
# Sequence of FAD-linked sulfhydryl oxidase ALR (P55789 whole entry): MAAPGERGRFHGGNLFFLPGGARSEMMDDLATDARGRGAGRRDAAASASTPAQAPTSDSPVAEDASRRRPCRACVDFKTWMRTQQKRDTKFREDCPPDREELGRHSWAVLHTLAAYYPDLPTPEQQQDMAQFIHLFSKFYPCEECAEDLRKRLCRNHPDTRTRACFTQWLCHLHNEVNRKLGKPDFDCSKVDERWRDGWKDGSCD
# Sequence of Genome polyprotein (P29990 2492-3391 limits assumed): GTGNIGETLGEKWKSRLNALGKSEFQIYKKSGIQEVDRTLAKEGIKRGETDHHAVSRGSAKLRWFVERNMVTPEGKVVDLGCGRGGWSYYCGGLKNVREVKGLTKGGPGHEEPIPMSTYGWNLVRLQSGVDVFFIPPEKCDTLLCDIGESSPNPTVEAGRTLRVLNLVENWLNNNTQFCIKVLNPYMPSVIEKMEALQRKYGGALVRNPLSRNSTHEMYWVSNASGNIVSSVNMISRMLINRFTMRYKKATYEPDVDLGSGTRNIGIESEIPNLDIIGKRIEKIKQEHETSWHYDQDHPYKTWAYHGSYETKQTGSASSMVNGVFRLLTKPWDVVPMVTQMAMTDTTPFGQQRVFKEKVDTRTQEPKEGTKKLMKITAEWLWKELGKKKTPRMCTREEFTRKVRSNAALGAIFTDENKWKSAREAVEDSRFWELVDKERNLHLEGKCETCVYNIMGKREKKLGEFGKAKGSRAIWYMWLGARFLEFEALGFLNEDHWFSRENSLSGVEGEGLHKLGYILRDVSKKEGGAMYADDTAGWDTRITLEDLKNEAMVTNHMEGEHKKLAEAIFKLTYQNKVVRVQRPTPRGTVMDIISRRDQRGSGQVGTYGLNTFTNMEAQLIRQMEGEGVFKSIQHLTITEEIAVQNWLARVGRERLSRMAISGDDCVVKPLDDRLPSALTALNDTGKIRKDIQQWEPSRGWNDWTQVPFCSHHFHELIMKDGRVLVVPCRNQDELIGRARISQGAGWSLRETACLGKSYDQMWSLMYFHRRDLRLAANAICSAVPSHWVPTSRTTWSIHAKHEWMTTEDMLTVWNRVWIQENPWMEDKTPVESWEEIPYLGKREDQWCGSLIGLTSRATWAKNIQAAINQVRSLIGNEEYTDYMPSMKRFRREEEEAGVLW
structure (smiles),measurement,setting,value
Cc1ccc(CSC2=NCCN2C(=O)c2ccco2)cc1,AC50,[1],2.85 µM (active)
COc1cc(/C=N/Nc2ccc(Cl)nn2)cc(OC)c1O,AC50,[1],0.005 µM (active)
CSc1ccc(C2C(C#N)=C(N)Oc3cc4c(cc32)OCO4)cc1 (centres undefined),EC50,[2],6.59 µM (active)
same,EC50,[3],6.05 µM (active)
Nc1ccc(-c2ccc(N)c(C(=O)O)c2)cc1C(=O)O,AC50,[1],2.38 µM (active)
CCCOc1ccc2c(c1)C(=NN=C(N)N)c1cc(OCCC)ccc1-2,AC50,[4],3.33 µM (active)
same,CC50,[5],12.2 µM (active)
O=C(Nc1cccc(Cl)c1)c1cccc(N2C(=O)C3CC=CCC3C2=O)c1 (centres undefined),AC50,Caspase-6,9.42 µM (active)
O=S(=O)(c1ccc2[nH]c(-c3ccccc3)nc2c1)N1CCN(c2ccc(Cl)cc2)CC1,EC50,[2],4.83 µM (active)
same,EC50,[3],5.15 µM (active)
Nc1n[nH]c(N)c1N=Nc1ccc(F)cc1,IC50,Leucine aminopeptidase,8.11 µM (active)
same,IC50,[6],30.8 µM (not active)
same,AC50,[1],2.29 µM (active)
O=C(NC(=S)NC(CO)Cc1ccccc1)c1ccc(F)cc1 (centres undefined),IC50,[7],> 66 µM (inactive)
same,IC50,[8],> 66 µM (inactive)
CCCCNc1nc(NCc2ccccc2)nc2ccccc12,AC50,Caspase-6,15.6 µM (active)
CC(OC(=O)c1oc2ccccc2c1CSC1CCCCC1)C(=O)NC(N)=O (centres undefined),EC50,[2],24.9 µM (active)
same,EC50,[3],55.1 µM (active)
Cc1ccc(S(=O)(=O)SC/C=C/CSS(=O)(=O)c2ccc(C)cc2)cc1,IC50,[9],59.5 µM (inactive)
Clc1ccc(-c2[nH]ncc2N=Nc2ccccc2)cc1,AC50,INS1,> 120 µM (inactive)
same,CC50,[5],> 40 µM (active)
Cc1cc(C)c2ccc(NN)nc2c1O,CC50,[10],36 µM (active)
same,EC50,Streptococcus,6.5 µM (active)
same,EC50,[11],3.27 µM (active)
same,CC50,[5],> 40 µM (active)
same,IC50,H9c2,5.06 µM (active)
CC1Nc2ncnc(N3CCN(c4ccccc4)CC3)c2N(Cc2ccc(Br)cc2)C1=O (centres undefined),CC50,[5],> 40 µM (active)
same,IC50,H9c2,> 79 µM (inactive)
O=C(CN1C(=O)C2C3C=CC(C3)C2C1=O)OCC(=O)c1ccc([N+](=O)[O-])cc1 (centres undefined),IC50,[9],> 80 µM (inactive)
O=C(O)c1cccc(S(=O)(=O)Nc2ccc3c(c2)OCO3)c1,IC50,[7],> 66 µM (inactive)
same,IC50,[8],> 66 µM (inactive)
COC(=O)c1c(C)c2c(C)cc3ccccn3c-2c1C(=O)OC,IC50,Genome polyprotein,> 100 µM (active)
Cc1cc(Nc2[nH]nc(N)c2C#N)ccc1F,AC50,[1],2.22 µM (active)
Fc1cc(F)c(F)c(SCCc2ccncc2)c1F,EC50,[2],29.7 µM (active)
same,EC50,[3],30.7 µM (active)
O=C(NN/C=C1\C(=O)N(Cc2ccccc2)C(=O)c2ccccc21)c1cccnc1,AC50,[1],3.35 µM (active)
CC(=O)Nc1ccc(C(=O)CSc2ncn(-c3ccccc3)n2)cc1,IC50,[7],> 66 µM (inactive)
same,IC50,[8],> 66 µM (inactive)
Cc1ccc(CSc2nc3ccncc3n2CC(=O)Nc2cc(C)cc(C)c2)cc1,EC50,[2],26.3 µM (active)
same,EC50,[3],30.7 µM (active)
COc1c(OC(C)=O)ccc(/C=N\NC(=O)c2ccc(Br)cc2)c1[N+](=O)[O-],IC50,Genome polyprotein,96.5 µM (active)
Fc1ccc(CN2CC[C@H]3C=CCc4cccc(c43)C2)cc1,IC50,[7],> 66 µM (inactive)
same,IC50,[8],> 66 µM (inactive)
Cc1nc(-c2ccc(NC(=O)CC(C)C)cc2)cs1,AC50,[1],2.38 µM (active)
[O-]/[N+](=C/c1cccnc1)c1ccc(Br)cc1,IC50,[9],28.2 µM (inactive)
Sc1ncc2cnccn12,IC50,[12],52.3 µM (active)
same,IC50,[7],> 66 µM (inactive)
same,IC50,[8],> 66 µM (inactive)
O=C(NC(N=C(S)Nc1c(Cl)cccc1Cl)C(Cl)(Cl)Cl)c1cccc([N+](=O)[O-])c1 (centres undefined),EC50,[13],> 60 µM (not active)
same,EC50,[14],2.22 µM (active)
same,EC50,[2],12.4 µM (active)
same,EC50,[3],16.2 µM (active)
Cc1ccc(-c2cc(C(F)(F)F)n3nc(C(=O)NCCCn4ccnc4)cc3n2)cc1C,IC50,cells,> 50 µM (active)
same,CC50,[5],> 40 µM (active)
CCc1nc(N2CCN(C(C)=O)CC2)c2c3c(sc2n1)CC(C(C)(C)C)CC3 (centres undefined),AC50,[15],6.76 µM (active)
same,AC50,INS1,3.36 µM (active)
same,AC50,[16],58.6 µM (active)
same,AC50,[17],11.3 µM (active)
same,CC50,[5],> 40 µM (active)
